Values of other authors, collected in patent US20240390444A1, “COMPOSITIONS AND METHODS LOWERING GLYCEMIC RESPONSE TO IMPROVE SLEEP QUALITY AND/OR SUBSEQUENT BEHAVIOURAL OUTCOMES” (SOCIETE DES PRODUITS NESTLE S.A., priority 2021, published 2024).

Conditions: 12.5 mg DNJ in capsule, co-ingestion with maltodextrin

In the case of `OC[C@H]1NC[C@H](O)[C@@H](O)[C@@H]1O` [DNJ, 1-deoxynojirimycin], the “reduction of PPGR” value is listed as 14%.
